Reference: article PMC10390775, “CETP inhibitor evacetrapib enters mouse brain tissue” (Frontiers in Pharmacology, 2023)

Assays:
[1] = ref Krishna et al., 2017; cited from earlier work
[2] = Dalcetrapib brain distribution in rats after i.v. dosing, compared with evacetrapib in mice; assay type: in vivo; conditions: rats 10 mg/kg BW dalcetrapib i.v. vs mice 40 mg/kg BW evacetrapib, ref Takubo et al., 2014
[3] = parameters: method as in Takubo et al., 2014; conditions: rats; ref Takubo et al., 2014; cited from earlier work

Dalcetrapib brain concentration relative to evacetrapib concentration ([2]; 0.5 h after injection) | Dalcetrapib brain concentration relative to evacetrapib concentration ([2]; 24 h after injection) [fold] | SMILES | Accumulation in adipose tissues [1] | Crossing of the blood–brain barrier [3]
 |  | COc1cc(F)c(C(C)C)cc1-c1ccc(C(F)(F)F)cc1CN1C(=O)O[C@H](c2cc(C(F)(F)F)cc(C(F)(F)F)c2)[C@@H]1C [anacetrapib] | accumulate in adipose tissues | 
twofold lower | > 20 | CCC(CC)CC1(C(=O)Nc2ccccc2SC(=O)C(C)C)CCCCC1 [dalcetrapib] |  | capacity to cross the blood–brain barrier of rats
